Reference: publication PMC6835155, “Lessons from LIMK1 enzymology and their impact on inhibitor design” (Biochemical Journal, 2019)

Columns and labels:
LIMK1KD = biological target: T1, LIMK1KD (Homo sapiens, UniProt P53667); assay: Differential (dynamic) scanning fluorimetry (DSF) assay, LIMK1KD; type: binding; settings: 2 µM LIMK1KD, compound 10 µM, single shot; for ΔTm at 10 µM: read-out: TM Shift LIMK1 (K)
T1 construct: His6 (N, cleaved yes); made in house; host or cells: baculovirus; Sf9 for virus, TriEx insect cells for expression

LIMK2KD = biological target: T2, LIMK2KD (Homo sapiens, UniProt P53671); assay: Differential (dynamic) scanning fluorimetry (DSF) assay, LIMK2KD; type: binding; settings: LIMK2KD, compound 10 µM, single shot; for ΔTm at 10 µM: read-out: TM Shift LIMK2 (K)
T2 construct: The cDNA coding for LIMK2 residues 330 to 632 was PCR amplified; His6 (N, cleaved yes); made in house; host or cells: baculovirus; Sf9 for virus, TriEx insect cells for expression
T2 sequence (P53671 330-632): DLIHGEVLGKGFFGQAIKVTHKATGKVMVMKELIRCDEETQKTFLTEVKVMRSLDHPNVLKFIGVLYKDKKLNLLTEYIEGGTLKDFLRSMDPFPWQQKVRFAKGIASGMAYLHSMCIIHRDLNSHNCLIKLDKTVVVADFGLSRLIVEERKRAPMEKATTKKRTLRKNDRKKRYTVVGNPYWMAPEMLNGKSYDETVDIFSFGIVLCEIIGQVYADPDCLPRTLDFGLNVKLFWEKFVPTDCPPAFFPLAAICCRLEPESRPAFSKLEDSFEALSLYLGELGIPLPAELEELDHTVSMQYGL

T1 sequence (P53667 330-637): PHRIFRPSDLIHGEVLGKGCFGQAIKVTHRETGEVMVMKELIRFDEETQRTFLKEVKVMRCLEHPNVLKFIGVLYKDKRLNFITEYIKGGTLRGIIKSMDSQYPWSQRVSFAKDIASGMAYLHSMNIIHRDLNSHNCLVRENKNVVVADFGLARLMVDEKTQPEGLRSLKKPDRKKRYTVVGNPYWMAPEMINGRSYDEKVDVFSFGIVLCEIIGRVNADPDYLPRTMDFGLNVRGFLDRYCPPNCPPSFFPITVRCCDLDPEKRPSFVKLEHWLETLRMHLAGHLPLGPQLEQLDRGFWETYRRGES

ΔTm at 10 µM (LIMK1KD) [°C] | ΔTm at 10 µM (LIMK2KD) [°C] | Structure (SMILES) | further results
 |  | C[C@@H]1COCCN1c1cc(C2(S(C)(=O)=O)CC2)nc(-c2cccc3[nH]ccc23)n1 [AZ20] | TM Shift LIMK1 (K) (LIMK1KD): 0.8 K; TM Shift LIMK2 (K) (LIMK2KD): -0.8 K
0.4 | 0 | COc1cc(OC2CCN(C)CC2)ccc1Nc1ncc2c(n1)n(C1CCCC1)c(=O)n2C [AZ3146] | 
 |  | Cc1ccc(NC(=O)c2cccc(C(C)(C)C#N)c2)cc1Nc1ccc2ncn(C)c(=O)c2c1 [AZ 628] | TM Shift LIMK1 (K) (LIMK1KD): 0.3 K; TM Shift LIMK2 (K) (LIMK2KD): 1.2 K
6 | 0.1 | Cc1cc(Nc2nc(N[C@@H](C)c3ccc(F)cc3)c(C#N)cc2F)[nH]n1 [AZ 960] | 
0.5 | 2.3 | N#Cc1ccc2[nH]c(O)c(-c3ccc(CN4CCOCC4)cn3)c2c1 [AZD1080] | 
 |  | CCN(CCO)CCCOc1ccc2c(Nc3cc(CC(=O)Nc4cccc(F)c4)[nH]n3)ncnc2c1 [AZD1152-HQPA, Barasertib] | TM Shift LIMK1 (K) (LIMK1KD): 0.6 K; TM Shift LIMK1 (K) (LIMK1KD; listed as Barasertib (AZD1152-HQPA)): 0.2 K; TM Shift LIMK2 (K) (LIMK2KD; 10 µM): 0.7 K; TM Shift LIMK2 (K) (LIMK2KD; listed as Barasertib (AZD1152-HQPA), 10 µM): -0.2 K
4.7 | 0.6 | Cc1cc(Nc2nc(N[C@@H](C)c3ncc(F)cn3)ncc2Cl)n[nH]1 [AZD1480] | 
0.2 | -0.3 | CNC(=O)c1cccc(-c2ccc3c(N4CCOC[C@@H]4C)nc(N4CCOC[C@@H]4C)nc3n2)c1 [AZD2014] | 
 |  | COc1cc(N2CCC(N)CC2)ccc1Nc1ncc(Cl)c(-c2c[nH]c3ccccc23)n1 [AZD3463] | TM Shift LIMK1 (K) (LIMK1KD): 2.5 K; TM Shift LIMK2 (K) (LIMK2KD): 3.1 K
4.4 | 1.7 | Cc1ncc(-c2ccnc(Nc3ccc(S(C)(=O)=O)cc3)n2)n1C(C)C [AZD5438] | 
0.7 | 1.8 | Cc1cc([C@@H](C)Nc2ccccc2C(=O)O)c2nc(N3CCOCC3)cc(=O)n2c1 [AZD6482] | 
0.9 | 0.8 | COc1ccc(-c2ccc3c(N4CCOC[C@@H]4C)nc(N4CCOC[C@@H]4C)nc3n2)cc1CO [AZD8055] | 
0.3 | 0.2 | Cc1cc(C(=O)NOCCO)c(Nc2ccc(I)cc2F)n(C)c1=O [AZD8330] | 
0.9 | 0.6 | CNC(=O)CN1CCC(Oc2cc3c(Nc4cccc(Cl)c4F)ncnc3cc2OC)CC1 [AZD8931 (Sapitinib), Sapitinib] | 
0.7 | 2.1 | NC(=O)c1ncn([C@@H]2O[C@H](CO)[C@@H](O)[C@H]2O)c1N [Acadesine] | 
-1.6 | 1.1 | CCc1cc2c(cc1N1CCC(N3CCOCC3)CC1)C(C)(C)c1[nH]c3cc(C#N)ccc3c1C2=O [Alectinib (CH5424802), Alectinib] | 
-0.3 | 1.8 | COc1cc(Nc2ncc3c(n2)-c2ccc(Cl)cc2C(c2c(F)cccc2OC)=NC3)ccc1C(=O)O [Alisertib (MLN8237), Alisertib] | 
1.9 | 0.5 | CN1CC[C@H](c2c(O)cc(O)c3c(=O)cc(-c4ccccc4Cl)oc23)[C@H](O)C1 [Alvocidib] | 
-0.3 | 2.3 | S=C(NCc1ccc2c(c1)OCO2)N1CCN(c2ncnc3c2oc2ccccc23)CC1 [Amuvatinib (MP-470), Amuvatinib] | 
0.2 | 3.8 | N#CC1(c2ccc(NC(=O)c3cccnc3NCc3ccncc3)cc2)CCCC1 [Apatinib] | 
1.6 | 0.6 | Cc1c(CN2CCN(C(=O)[C@H](C)O)CC2)sc2c(N3CCOCC3)nc(-c3cnc(N)nc3)nc12 [Apitolisib] | 
-0.9 | 1.7 | C[C@H]1[C@H](C)CC[C@]2(C(=O)O)CC[C@]3(C)C(=CC[C@@H]4[C@@]5(C)C[C@@H](O)[C@H](O)[C@@](C)(CO)[C@@H]5CC[C@]43C)[C@H]12 [Asiatic Acid] | 

ΔTm at 10 µM (LIMK1KD) [°C] | ΔTm at 10 µM (LIMK2KD) [°C] | Structure (SMILES) | further results
 |  | CCN1CCN(C(=O)Cc2ccc(Nc3ncc(F)c(Nc4ccc(C(=O)Nc5ccccc5Cl)cc4)n3)cc2)CC1 [Aurora A Inhibitor I] | TM Shift LIMK1 (K) (LIMK1KD): 4.9 K; TM Shift LIMK2 (K) (LIMK2KD): 3.7 K
2 | -0.7 | CNC(=O)c1ccccc1Sc1ccc2c(/C=C/c3ccccn3)n[nH]c2c1 [Axitinib] | 
 |  | Cc1ccc(S(=O)(=O)/C=C/C#N)cc1 [BAY 11-7082] | TM Shift LIMK1 (K) (LIMK1KD): -0.8 K; TM Shift LIMK2 (K) (LIMK2KD): 0.2 K
-0.1 | -0.7 | COc1ccc(-c2ccc3ncc4c(c3c2)n(-c2ccc(N3CCNCC3)c(C(F)(F)F)c2)c(=O)n4C)cn1 [BGT226 (NVP-BGT226)] | 
 |  | CC(C)CCN1c2nc(Nc3cc(F)c(O)c(F)c3)ncc2N(C)C(=O)C1C (centres unmarked) [BI-D1870] | TM Shift LIMK1 (K) (LIMK1KD): 2.2 K; TM Shift LIMK2 (K) (LIMK2KD): 3.9 K
 |  | O=C1Nc2cc(Br)ccc2/C1=C1/Nc2ccccc2/C1=N\O [BIO] | TM Shift LIMK1 (K) (LIMK1KD): 0.2 K; TM Shift LIMK2 (K) (LIMK2KD): 2.2 K
1.7 | -0.1 | CN(C)Cc1cccc(N/C(=C2\C(=O)Nc3cc(C(N)=O)ccc32)c2ccccc2)c1 [BIX 02188] | 
 |  | CN(C)Cc1cccc(N/C(=C2\C(=O)Nc3cc(C(=O)N(C)C)ccc32)c2ccccc2)c1 [BIX 02189] | TM Shift LIMK1 (K) (LIMK1KD): 0.1 K; TM Shift LIMK2 (K) (LIMK2KD): 4.5 K
0.7 | 1.4 | CCCCOc1c(C(=O)c2c(F)cc(C)cc2F)c[nH]c2nncc1-2 [BMS-265246] | 
0.4 | 2.8 | Cc1ccc2nc(NCCN)c3ncc(C)n3c2c1 [BMS-345541] | 
0.7 |  | Cc1c(NC(=O)OC[C@@H]2COCCN2)cn2ncnc(Nc3ccc4c(cnn4Cc4cccc(F)c4)c3)c12 [BMS-599626] | TM Shift LIMK2 (K) (LIMK2KD; 10 µM): -0.4 K; TM Shift LIMK2 (K) (LIMK2KD; listed as AC480 (BMS-599626), 10 µM): 0.9 K
3.8 | -0.2 | CCOc1ccn(-c2ccc(F)cc2)c(=O)c1C(=O)Nc1ccc(Oc2ccnc(N)c2Cl)c(F)c1 [BMS-777607] | 
1.5 | 2 | Nc1nccc(Oc2ccc(NC(=O)c3c[nH]cc(-c4ccc(F)cc4)c3=O)cc2F)c1Cl [BMS-794833] | 
1.8 | 0.3 | CCn1c(C(=O)N(C2CC2)C2CC2)cc2c3c(ncn3C)c(Nc3cc(C)n(C)n3)nc21 [BMS-911543] | 
 |  | CC(C)c1cnn2c(NCc3ccccc3)cc(NCCCCCCN)nc12.Cl [BS-181 HCl] | TM Shift LIMK1 (K) (LIMK1KD): 0.7 K; TM Shift LIMK2 (K) (LIMK2KD): 1.7 K
5 | 4.7 | O=C(NCCCNc1nc(Nc2cccc(NC(=O)N3CCCC3)c2)ncc1I)c1cccs1 [BX-795] | 
 |  | O=C(Nc1cccc(Nc2ncc(Br)c(NCCc3cnc[nH]3)n2)c1)N1CCCC1 [BX-912] | TM Shift LIMK1 (K) (LIMK1KD): 3.6 K; TM Shift LIMK2 (K) (LIMK2KD): 2.8 K
-0.5 | -0.2 | Cc1nc(NC(=O)N2CCC[C@H]2C(N)=O)sc1-c1ccnc(C(C)(C)C(F)(F)F)c1 [BYL719] | 
2.5 | 1.1 | Cc1ccc(NC(=O)c2ccc(CN3CC[C@H](N(C)C)C3)c(C(F)(F)F)c2)cc1Nc1nccc(-c2cncnc2)n1 [Bafetinib] | 
-1 | 0.8 | COC(=O)[C@]12CCC(C)(C)C[C@H]1[C@H]1C(=O)C=C3[C@@]4(C)C=C(C#N)C(=O)C(C)(C)[C@@H]4CC[C@@]3(C)[C@]1(C)CC2 [Bardoxolone Methyl] | 
1.6 | 1 | CCS(=O)(=O)N1CC(CC#N)(n2cc(-c3ncnc4[nH]ccc34)cn2)C1 [Baricitinib] | 
